Marks after values point to notes of the source that are not given here.
Columns and labels:
Type in all cases: in vivo, human
[1] = test system: Patients with Type 2 Diabetes Insufficiently Controlled with Insulin Glargine with or without Metformin; experiment: HbA1c, randomized open-label active-controlled 3-arm 26-week study (GetGoal-Duo2)
Excerpt: (§1) FIG. 6—Graphical study design. ^1 Insulin glargine should be injected subcutaneously once daily at dinner or breakfast time (according to patient's/investigators' preference). […] Meal used for insulin glulisine dosing should remain the same throughout the 26-week treatment period. ^4 Injection of insulin glulisine prior to breakfast, lunch and dinner.
(§2) Co-primary endpoints at 26 weeks were (1) non-inferiority (95% CI upper bound <0.4%) in HbA1c reduction with LIXI vs GLU-1 and (2) for LIXI vs GLU-3, either non-inferiority in HbA1c reduction (2a) OR superiority (one-sided α≤0.025) in body weight change (2b). FPG, PPG, IG dose, composite outcomes, AEs, and hypoglycemia were assessed.

[2] = test system: Patients with Type 2 Diabetes Insufficiently Controlled with Insulin Glargine with or without Metformin; experiment: Fasting plasma glucose, 26-week study
Excerpt: as §1, §2

[3] = test system: Patients with Type 2 Diabetes Insufficiently Controlled with Insulin Glargine with or without Metformin; experiment: 2-h PPG post test meal, 26-week study; settings: subset of mITT treated before breakfast
Description: as §2

[4] = test system: Patients with Type 2 Diabetes Insufficiently Controlled with Insulin Glargine with or without Metformin; experiment: Insulin dose (insulin glargine, insulin glulisine), 26-week study
Excerpt: as §1, §2

[5] = test system: Patients with Type 2 Diabetes Insufficiently Controlled with Insulin Glargine with or without Metformin
[6] = Baseline (before IMP), mITT population
[7] = Week 26 (LOCF), mITT population

## Insulin Glulisine TID: insulin glulisine three times daily, added to insulin glargine ± metformin (comparator arm)
[1]; ANCOVA, mITT population
  HbA1c change to Week 26, LS Mean difference (SE) of Lixisenatide vs. the labelled insulin glulisine arm: 0.21 (0.059) %
  HbA1c, Change from baseline to Week 26 (LOCF), LS Mean (SE): −0.84 (0.053) %
[1]; BL (end run-in), mITT
  HbA1c, BL (end run-in) mean ± SD: 7.8 ± 0.6%
[1]; [6]
  HbA1c, Baseline, Mean (SD): 7.79 (0.60) %
  HbA1c, Baseline, Median: 7.70%
[1]; Screening (start run-in), mITT
  HbA1c, Screening (start run-in) mean ± SD: 8.5 ± 0.8%
[1]; [7]
  HbA1c, Week 26 (LOCF), Mean (SD): 6.96 (0.73) %
  HbA1c, Week 26 (LOCF), Median: 7.00%
[1]; Week 26 (LOCF), mITT, Example 2 table
  HbA1c, Week 26 (LOCF) mean ± SD: 7.0 ± 0.7%
[1]; Week 26, mITT, Example 2 table
  HbA1c, LS mean treatment difference (lixisenatide vs the labelled arm), co-primary endpoint: 0.2^† %
  HbA1c, LS mean ± SE change from BL: −0.8 ± 0.1%
[1]; mITT population
  HbA1c, Change from baseline to Week 26 (LOCF), Mean (SD): −0.82 (0.78) %
  HbA1c, Change from baseline to Week 26 (LOCF), Median: −0.90%
[2]; ANCOVA, mITT population
  Fasting plasma glucose change to Week 26, LS Mean difference (SE) of Lixisenatide vs. the labelled insulin glulisine arm: −0.17 (0.158) mmol/L
  Fasting plasma glucose, Change from baseline to Week 26 (LOCF), LS Mean (SE): −0.06 (0.140) mmol/L
[2]; BL (end run-in), mITT
  FPG, BL (end run-in) mean ± SD: 120 ± 34 mg/dL
[2]; [6]
  Fasting plasma glucose, Baseline, Mean (SD): 6.65 (1.89) mmol/L
  Fasting plasma glucose, Baseline, Median: 6.40 mmol/L
[2]; Screening (start run-in), mITT
  FPG, Screening (start run-in) mean ± SD: 171 ± 53 mg/dL
[2]; Week 26 (LOCF), mITT
  FPG, Week 26 (LOCF) mean ± SD: 121 ± 36 mg/dL
[2]; [7]
  Fasting plasma glucose, Week 26 (LOCF), Mean (SD): 6.71 (2.02) mmol/L
  Fasting plasma glucose, Week 26 (LOCF), Median: 6.50 mmol/L
[2]; Week 26, mITT
  FPG, LS mean treatment difference (lixisenatide vs the labelled arm): -3 mg/dL
  FPG, LS mean ± SE change from BL: -1 ± 3 mg/dL
[2]; mITT population
  Fasting plasma glucose, Change from baseline to Week 26 (LOCF), Mean (SD): 0.05 (2.47) mmol/L
  Fasting plasma glucose, Change from baseline to Week 26 (LOCF), Median: -0.20 mmol/L
[3]; BL
  2-h PPG post test meal, BL (end run-in) mean ± SD: 262 ± 63 mg/dL
[3]; Week 26 (LOCF)
  2-h PPG post test meal, Week 26 (LOCF) mean ± SD: 229 ± 69 mg/dL
[3]; Week 26
  2-h PPG post test meal, LS mean treatment difference (lixisenatide vs the labelled arm): -40 mg/dL
  2-h PPG post test meal, LS mean ± SE change from BL: -25 ± 11 mg/dL
[4]; ANCOVA, mITT population
  Insulin glargine dose change to Week 26, LS Mean difference (SE) of Lixisenatide vs. the labelled insulin glulisine arm: 3.83 (1.106) U
  Insulin glargine dose, Change from baseline to Week 26 (LOCF), LS Mean (SE): −3.13 (0.982) U
[4]; BL (end run-in), mITT
  Insulin Glargine dose, BL (end run-in) mean ± SD: 65 ± 27 U/day
[4]; [6]
  Insulin glargine dose, Baseline, Mean (SD): 65.05 (27.01) U
  Insulin glargine dose, Baseline, Median: 60.67 U
[4]; Week 26 (LOCF), mITT
  Insulin Glargine dose, Week 26 (LOCF) mean ± SD: 61 ± 29 U/day
[4]; [7]
  Insulin glargine dose, Week 26 (LOCF), Mean (SD): 61.16 (29.33) U
  Insulin glargine dose, Week 26 (LOCF), Median: 57.00 U
[4]; Week 26, mITT
  Insulin Glargine dose, LS mean + SE change from BL: −3.1 ± 1.0 U/day
  Insulin Glargine dose, LS mean treatment difference (lixisenatide vs the labelled arm): 3.9 U/day
[4]; mITT population
  Insulin glargine dose, Change from baseline to Week 26 (LOCF), Mean (SD): −3.89 (13.28) U
  Insulin glargine dose, Change from baseline to Week 26 (LOCF), Median: −4.00 U
[5]; Randomized population, HbA1c above […] at Week 12 or later
  Reason for treatment discontinuation: Lack of efficacy: 0 n (%)
[5]; human, in vivo
  Reason for treatment discontinuation: Adverse event: 5 (1.7%) n (%)
